These results are taken from PubChem BioAssay (NCI).

Among the test systems are SNB-78 CNS; XF 498 CNS; M19-MEL melanoma; LXFL 529 NSCLC; KM20L2 colon; RXF-631 renal; SN12K1 renal; MCF7 breast; MDA-N; P388/ADR leukemia; P388 leukemia; NCI/ADR-RES ovarian.
Experiment in all cases: NCI tumour cell line growth inhibition, 48 h

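In this assay, cells in 96-well plates receive the compound at five concentrations for 48 hours. Endpoints are linearly interpolated between the surrounding concentrations. TGI: total growth inhibition.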

For `CC1=C(C(=O)NCc2ccccc2)C(c2ccc([N+](=O)[O-])cc2)C(C(=O)NCc2ccccc2)=C(C)N1`, the TGI with SNB-78 CNS is more than 100 µM; with XF 498 CNS it was more than 100 µM; in the test on M19-MEL melanoma, 52.7 µM; in the test with LXFL 529 NSCLC, more than 100 µM; with KM20L2 colon it was 54 µM.
As for `O=C1c2ccccc2NC1(c1ccccc1)c1c(-c2ccccc2)[nH]c2ccccc12` (stereo unspecified), the TGI in the test with SNB-78 CNS is more than 100 µM; in the test with XF 498 CNS, 99 µM; in the test with M19-MEL melanoma, more than 100 µM; with LXFL 529 NSCLC, more than 100 µM; with RXF-631 renal it was more than 100 µM; with KM20L2 colon, more than 100 µM.
For the compound `COc1cc2c(cc1OC)C(OC)N(C)c1c-2ccc2cc3c(cc12)OCO3` (stereo unspecified), the TGI in the test on SN12K1 renal is 2.05 µM; with SNB-78 CNS it was more than 75 µM; in the test on XF 498 CNS it was 2.95 µM; in the test on MCF7 breast it was 12.6 µM; with MDA-N it was more than 75 µM; with P388/ADR leukemia, 13 µM. In addition, the TGI with P388 leukemia was 4.98 µM; in the test on M19-MEL melanoma, 4.08 µM; in the test on NCI/ADR-RES ovarian, more than 55.3 µM; in the test on KM20L2 colon, 6.5 µM.
With `CCOC(=O)C(=O)Nc1ccc(Cl)cc1C`, the TGI in the test with SNB-78 CNS, in the test on XF 498 CNS, in the test on M19-MEL melanoma, in the test on LXFL 529 NSCLC and in the test with KM20L2 colon was more than 100 µM in each case.
`CN(CCc1ccccn1)c1nc(=[N+](C)C)ss1`: the TGI with SNB-78 CNS, in the test on XF 498 CNS, with M19-MEL melanoma, with LXFL 529 NSCLC, with RXF-631 renal and in the test on KM20L2 colon was more than 100 µM in each case.
`O=C(Cc1csc(-c2nc(CC(=O)NNc3ccccc3)cs2)n1)NNc1ccccc1`: the TGI in the test on SNB-78 CNS, with XF 498 CNS, in the test with M19-MEL melanoma, in the test on LXFL 529 NSCLC and in the test with KM20L2 colon was more than 100 µM in each case.
Turning to `O=C(O)/C(Cl)=C(\Cl)C(=O)NC1C2CC3CC(C2)CC1C3` (stereo unspecified), the TGI in the test with SNB-78 CNS, in the test on XF 498 CNS, in the test on M19-MEL melanoma, with LXFL 529 NSCLC, in the test with RXF-631 renal and with KM20L2 colon was more than 100 µM throughout.
As to `C#CCN(N=O)C(=O)NC(CCCNC(=O)OCc1ccccc1)C(=O)OCc1ccccc1` (stereo unspecified), the TGI in the test on SNB-78 CNS is more than 100 µM; in the test on XF 498 CNS, 60.1 µM; in the test with M19-MEL melanoma, more than 100 µM; in the test on LXFL 529 NSCLC it was more than 100 µM; in the test with KM20L2 colon, more than 100 µM.
For `Cc1ccc(NC(=O)C(=O)CC(=O)C2CCOC2=O)c(C)c1` (stereo unspecified), the TGI with SNB-78 CNS, in the test with XF 498 CNS, in the test with LXFL 529 NSCLC, in the test with RXF-631 renal and with KM20L2 colon was more than 100 µM each time.
For `CC(=O)O[C@H]1CCC2[C@@H]3CCC4=C(O)C(=O)C(C#N)C[C@]4(C)C3CC[C@@]21C` (stereo partly specified), the TGI with SNB-78 CNS, in the test with XF 498 CNS, in the test with M19-MEL melanoma, in the test on LXFL 529 NSCLC and with KM20L2 colon was more than 100 µM throughout.
Take `CN1C(c2ccccc2)CS(=O)(=O)CS1(=O)=O` (stereo unspecified): the TGI with SNB-78 CNS, with XF 498 CNS, in the test on M19-MEL melanoma, in the test with LXFL 529 NSCLC, with RXF-631 renal and with KM20L2 colon was more than 100 µM each time.
As for `C[C@@H](CN1CC(=O)NC(=O)C1)N1CC(=O)NC(=O)C1`, the TGI in the test with SN12K1 renal was determined as 541 µM; in the test on SNB-78 CNS it was 1480 µM; in the test with XF 498 CNS it was 201 µM; with MCF7 breast, 498 µM; with MDA-N, 680 µM; in the test with P388/ADR leukemia it was 2180 µM. The TGI in the test on P388 leukemia worked out at 2500 µM; with M19-MEL melanoma, 998 µM; in the test on NCI/ADR-RES ovarian, 987 µM; in the test on KM20L2 colon, 1290 µM.
For the compound `Cc1ccc(C2NC(=O)c3ccccc3N2)s1` (stereo unspecified), the TGI in the test with SNB-78 CNS was more than 100 µM; with XF 498 CNS, 19 µM; with M19-MEL melanoma, more than 100 µM; with LXFL 529 NSCLC, more than 100 µM; in the test with KM20L2 colon, 39.3 µM.
Turning to `Cc1ccccc1C(=O)Oc1ccc(O)cc1`, the TGI in the test with SNB-78 CNS, in the test on M19-MEL melanoma, in the test with RXF-631 renal and in the test with KM20L2 colon was more than 100 µM each time.
For `O=S(=O)(N/N=C/c1cccc(Cl)c1Cl)c1ccccc1`, the TGI with SNB-78 CNS, in the test on XF 498 CNS, in the test with M19-MEL melanoma, with LXFL 529 NSCLC and in the test with KM20L2 colon was more than 100 µM throughout.
Regarding `O=C(CC1(O)C(=O)Nc2ccccc21)c1ccco1` (stereo unspecified), the TGI in the test on SNB-78 CNS, with XF 498 CNS, in the test with M19-MEL melanoma, in the test with LXFL 529 NSCLC and in the test on KM20L2 colon was more than 100 µM in each case.
Regarding `CC1(C)OB(O)OC1(C)C`, the TGI with SNB-78 CNS, in the test on XF 498 CNS, in the test with LXFL 529 NSCLC and in the test with KM20L2 colon was more than 100 µM each time.
Consider `O=c1cc(-c2ccccc2)oc2cc(O)cc(O)c12`, for which the TGI was 92.5 µM with SNB-78 CNS; 44.1 µM with XF 498 CNS; 73.5 µM with M19-MEL melanoma; 48.3 µM in the test on LXFL 529 NSCLC; 53.1 µM with KM20L2 colon.
With `CC1=C(C(=O)Nc2cc(=O)n(C)c(=O)n2C)C(c2ccc([N+](=O)[O-])cc2)C(C(=O)Nc2cc(=O)n(C)c(=O)n2C)=C(C)N1`, the TGI in the test on SNB-78 CNS, in the test on XF 498 CNS, with M19-MEL melanoma, in the test on LXFL 529 NSCLC, with RXF-631 renal and in the test with KM20L2 colon was more than 100 µM each time.
As to `O=S(=O)(SCc1ccccc1)C(c1ccccc1)c1ccccc1`, the TGI in the test on SNB-78 CNS is 75.7 µM; with XF 498 CNS, more than 100 µM; in the test with M19-MEL melanoma it was more than 100 µM; with LXFL 529 NSCLC it was more than 100 µM; with KM20L2 colon, 40.5 µM.
For the compound `O=C(Cc1nc2ccccc2s1)C(=O)Nc1cccc(Cl)c1`, the TGI in the test on SNB-78 CNS, with XF 498 CNS, with M19-MEL melanoma, in the test with LXFL 529 NSCLC, in the test on RXF-631 renal and in the test on KM20L2 colon was more than 100 µM in each case.
As to `COc1ccc(C(=O)C(c2ccc(OC)cc2)C2OC(=O)C(Cl)=C2Cl)cc1` (stereo unspecified), the TGI in the test on SNB-78 CNS, in the test on XF 498 CNS, in the test on M19-MEL melanoma and in the test on LXFL 529 NSCLC was more than 100 µM each time.
Take `COc1ccc(Cc2cc3c(cc2OCC(=O)O)OCO3)cc1`: the TGI in the test on M19-MEL melanoma, in the test on RXF-631 renal and in the test on KM20L2 colon was more than 100 µM each time.
As for `CN(/N=C/c1cccc2cccnc12)c1ccc([N+](=O)[O-])cc1`, the TGI in the test on SNB-78 CNS, with XF 498 CNS, in the test with M19-MEL melanoma, in the test on LXFL 529 NSCLC and with KM20L2 colon was more than 100 µM each time.
Take `CN(C)/N=C(/c1nc2ccc([N+](=O)[O-])cc2[nH]c1=O)C(O)c1ccco1` (stereo unspecified): the TGI with SNB-78 CNS, with XF 498 CNS, in the test with M19-MEL melanoma, in the test with LXFL 529 NSCLC and in the test on KM20L2 colon was more than 100 µM throughout.
As for `COC(=O)CCC(=O)Nc1cc(Cl)ccc1Cl`, the TGI in the test on SNB-78 CNS, with XF 498 CNS, in the test on M19-MEL melanoma, in the test on LXFL 529 NSCLC and in the test with KM20L2 colon was more than 100 µM in each case.
